The results in this text go back to patent publication US12624050B2, “Three fused ring derivative-containing salt or crystal form and pharmaceutical composition thereof” (Shanghai Hansoh Biomedical Co., Ltd., priority 2019, dated 2026).

One data set relates to MKN1 (E545K). Description: Proliferation inhibition of PI3Kα mutant cancer cells, Cell Titer-Glo, MKN1. Type of data set: cell-based. The conditions noted are these: Homo sapiens, MKN-1. On the procedure: (§1) The proliferation inhibitory effect of the compounds of the examples on the PI3Kα mutant cancer cell lines (HCC1954, HGC-27 and MKN1) was detected by Cell Titer-Glo method. Cell lines were cultured in RPMI 1640 medium (Gibco #22400089) containing 10% FBS (Gibco #10091148) and 1% P/S (Hyclone #SV30010) under the condition of 37° C. and 5% CO2. The cells were collected before the experiment, and the cell density was adjusted after cell counting. The cells were seeded in a white 96-well plate (Corning #3610) at a density of 1000 to 10000 cells/well, and incubated in an incubator at 37° C. and 5% CO2 overnight. The prepared compound solutions of different concentrations and the corresponding solvent controls were added to the plate. The plate was again incubated in an incubator at 37° C. and 5% CO2 for 48 to 96 hours. Then the cell plate and its contents were equilibrated to room temperature. 20 to 100 μL of Cell Titer-Glo solution (Promega #G7573) was added to each well, and the plate was shaken and mixed well, then incubated at room temperature for 5 to 30 minutes in the dark. The chemiluminescence was measured by a SynergyH1 microplate reader from BioTek.
(§2) The percentage inhibition data of the compound-treated well was calculated from solvent control wells on the plate {% inhibition=100−([…])×100}. IC50 values were calculated using GraphPad prism and using a four-parameter nonlinear logistic formula to fit the data of different concentrations and corresponding percent inhibition.

Another data set deals with T1, PI3Kδ (Homo sapiens, UniProt O00329).
T1 construct: purchased Carna #11-103
Briefly: ADP-Glo Lipid Kinase Assay, PI3Kδ kinase activity. Type of data set: biochemical. The conditions noted are these: ratio of IC50 values. On the procedure: (§3) In this experiment, ADP-Glo Lipid Kinase Assay (Promega #V9102) from Promega was used. The lipid kinases PI3Kα/β/γ/δ catalyzed the ATP-to-ADP reaction in the presence of the substrate PIP2:3PS and ATP. The lipid kinase activity was characterized by measuring the ADP content in the reaction, and the half inhibition concentrations IC50 of the compounds on PI3Kα/β/γ/δ kinase activity were obtained.
(§4) Kinase reactions were carried out in white 384-well plates (Perkin Elmer #6007299). 2 μL of the compound of various concentrations diluted with ddH2O containing 1% DMSO was added to each well, and 2 μL of ddH2O containing 1% DMSO was added to positive control wells. Then 2 μL of 0.1 to 2 nM PI3K kinase solution diluted with 5× kinase buffer (HEPES 250 mM, MgCl2 15 mM, NaCl 250 mM, BSA 0.05%) was added to each well, and 2 μL of 5× kinase buffer was added to the negative control wells. 4 μL of 50 μM substrate PIP2:3PS (Promega #V1701) prepared with 10× Dilution buffer and ddH2O was added to all wells. Finally, 2 μL of 50 to 100 μM ATP solution diluted with water was added to start the reaction. After the reaction was carried out at room temperature for 90 to 120 minutes, 10 µL of ADP-Glo Reagent (containing 10 mM MgCl2) was added to each well, and the reaction was carried out at room temperature for 60 minutes to eliminate excess adenosine triphosphate (ATP) in the reaction. Then 20 μL of Kinase Detection Reagent was added to each well. After the reaction was carried out for 20 minutes at room temperature in the dark, the chemiluminescence was measured by BioTek Synergy H1 microplate reader.
(§5) The percentage inhibition data of the compound-treated well was calculated from positive control wells (DMSO control wells) and negative control wells (no kinase added) on the plate {% inhibition=100−[(test compound value−negative control value)]/(positive control value-negative control value)×100}. IC50 values were calculated using GraphPad prism and using a four-parameter nonlinear logistic formula to fit the data of different concentrations and corresponding percent inhibition.

In another data set the test system is HGC-27 (E542K). Briefly: Proliferation inhibition of PI3Kα mutant cancer cells, Cell Titer-Glo, HGC-27. The data set is classed as cell-based. The settings on record: Homo sapiens. On the procedure: as §1, §2
The subject of a further data set is HCC1954 cell. Briefly: In vivo efficacy test, HCC1954 tumor-bearing nude mice. Details: species or system BALB/c nude mice. The settings on record: oral, 10 mg/kg, once/day, 21 days (Example 22: 19 days). On the procedure: • a. A strain of HCC1954 cell was taken from the cell bank, recovered with RPMI-1640 medium (RPMI-1640+10% FBS+1% SP), plated in a cell culture flask (cell type, date, name of the experimenter and the like were labeled on the wall of the flask) and cultured in a CO2 incubator (the temperature was 37° C. and the CO2 concentration was 5% in the incubator). • b. Cells were passaged when they covered 80 to 90% of the bottom of the culture flask. After passage, the cells continued to be cultured in the CO2 incubator. This process was repeated until the number of cells was sufficient for the in vivo efficacy test. • c. The cultured cells were collected and counted with an automatic cell counter, and then resuspended with PBS and Matrigel Matrix according to the counting results to prepare a cell suspension (density 5×10^7/mL), which was placed in an ice box for use. 4.3.2 Cell Inoculation • a. The nude mice were labeled with disposable universal ear tags for rats and mice before inoculation. • b. During the inoculation, the cell suspension was mixed well. 0.1 to 1 mL of the cell suspension was drawn with a 1 mL syringe, air bubbles were removed, and then the syringe was placed on an ice pack for use. • c. The nude mouse was bound with the left hand. The position on the right side of the back close to the right shoulder of the nude mouse (inoculation site) was disinfected with 75% alcohol. Inoculation started after 30 seconds. • d. The test nude mice were successively inoculated (each mouse was inoculated with 0.1 mL of cell suspension). 4.3.3 Tumor Measurement, Grouping and Administration of Tumor-Bearing Mice • a. According to the tumor growth, the tumors was measured on 14 to 18 days after inoculation, and the tumor size was calculated. Calculation of tumor volume: tumor volume (mm^3)=length (mm)×width (mm)×width (mm)/2 • b. The tumor-bearing mice were grouped according to their body weight and tumor size by random grouping. • c. The test compounds were administered according to the grouping results (administration route: oral administration; administration dose: 10 mg/kg; administration volume: 10 mL/kg; administration frequency: once/day; administration cycle: 21 days; vehicle: 0.5% CMC/1% Tween 80). • d. Tumors were measured and weighed twice a week after the administration of test compounds began. • e. Animals were euthanized at the end of the experiment. • f. Data were processed by using softwares such as Excel. […] When the tumor regress, TGI (%)=[1−(average tumor volume of the treatment group at the end of the administration−average tumor volume of the treatment group at the beginning of the administration)/average tumor volume of the treatment group at the beginning of the administration]×100%.

A further data set deals with HCC1954 (H1047R). Description: Proliferation inhibition of PI3Kα mutant cancer cells, Cell Titer-Glo, HCC1954. The settings on record: Homo sapiens. Type of data set: cell-based. On the procedure: as §1, §2
A further data set concerns the target T2, PI3Kβ (Homo sapiens, UniProt P42338).
T2 construct: purchased Carna #11-102
Briefly: ADP-Glo Lipid Kinase Assay, PI3Kβ kinase activity. The data set is classed as biochemical. The settings on record: ratio of IC50 values. As for the experimental part:
as §3, §4, §5

Another data set concerns the target T3, PI3Kγ (Homo sapiens, UniProt P48736).
T3 construct: purchased Thermofisher #PV4786
Description: ADP-Glo Lipid Kinase Assay, PI3Kγ kinase activity. The data set is classed as biochemical. The settings on record: ratio of IC50 values. As for the experimental part: as §3, §4, §5

Data set [1] can be described thus: PK studies in animals of salt crystal forms, intragastric 30 mg/kg. The data set is classed as in vivo. The conditions noted are these: 0.5% HPMC K4M suspension. As for the experimental part: 7.2.1 Crystal form A of mesylate salt, crystal form D of sulfate salt and crystal form A of ethanesulfonate salt of (S)-2-((2-((R)-4-(difluoromethyl)-2-oxothiazolidin-3-yl)-5,6-dihydrobenzo[f]imidazo[1,2-d][1,4]oxazepin-9-yl)amino)propionamide were evenly suspended in an aqueous solution containing 0.5% HPMC (hydroxypropyl methylcellulose) K4M, and then intragastrically administered to rats in duplicate at a dose of 30 mg/kg. The amount of the compound was all converted into the amount of the same compound (S)-2-((2-((R)-4-(difluoromethyl)-2-oxothiazolidin-3-yl)-5,6-dihydrobenzo[f]imidazo[1,2-d][1,4]oxazepin-9-yl)amino)propionamide.

Data set [2] can be described thus: Hygroscopicity experiment. The data set is classed as physicochemical. The conditions noted are these: RH 80%. As for the experimental part: Crystal form A of mesylate salt, crystal form D of sulfate salt and crystal form A of ethanesulfonate salt of (S)-2-((2-((R)-4-(difluoromethyl)-2-oxothiazolidin-3-yl)-5,6-dihydrobenzo[f]imidazo[1,2-d][1,4]oxazepin-9-yl)amino)propionamide were placed in saturated water vapor with different relative humidity, so that the compound and water vapor reached a dynamic equilibrium, and the percentage of hygroscopic weight gain of the compound after the equilibrium was calculated.

Setting [3] is: rat, in vivo, po, rats, 30 mg/kg (as free compound).

pIC50: −log10 of the molar value.

T2 sequence (P42338 whole entry): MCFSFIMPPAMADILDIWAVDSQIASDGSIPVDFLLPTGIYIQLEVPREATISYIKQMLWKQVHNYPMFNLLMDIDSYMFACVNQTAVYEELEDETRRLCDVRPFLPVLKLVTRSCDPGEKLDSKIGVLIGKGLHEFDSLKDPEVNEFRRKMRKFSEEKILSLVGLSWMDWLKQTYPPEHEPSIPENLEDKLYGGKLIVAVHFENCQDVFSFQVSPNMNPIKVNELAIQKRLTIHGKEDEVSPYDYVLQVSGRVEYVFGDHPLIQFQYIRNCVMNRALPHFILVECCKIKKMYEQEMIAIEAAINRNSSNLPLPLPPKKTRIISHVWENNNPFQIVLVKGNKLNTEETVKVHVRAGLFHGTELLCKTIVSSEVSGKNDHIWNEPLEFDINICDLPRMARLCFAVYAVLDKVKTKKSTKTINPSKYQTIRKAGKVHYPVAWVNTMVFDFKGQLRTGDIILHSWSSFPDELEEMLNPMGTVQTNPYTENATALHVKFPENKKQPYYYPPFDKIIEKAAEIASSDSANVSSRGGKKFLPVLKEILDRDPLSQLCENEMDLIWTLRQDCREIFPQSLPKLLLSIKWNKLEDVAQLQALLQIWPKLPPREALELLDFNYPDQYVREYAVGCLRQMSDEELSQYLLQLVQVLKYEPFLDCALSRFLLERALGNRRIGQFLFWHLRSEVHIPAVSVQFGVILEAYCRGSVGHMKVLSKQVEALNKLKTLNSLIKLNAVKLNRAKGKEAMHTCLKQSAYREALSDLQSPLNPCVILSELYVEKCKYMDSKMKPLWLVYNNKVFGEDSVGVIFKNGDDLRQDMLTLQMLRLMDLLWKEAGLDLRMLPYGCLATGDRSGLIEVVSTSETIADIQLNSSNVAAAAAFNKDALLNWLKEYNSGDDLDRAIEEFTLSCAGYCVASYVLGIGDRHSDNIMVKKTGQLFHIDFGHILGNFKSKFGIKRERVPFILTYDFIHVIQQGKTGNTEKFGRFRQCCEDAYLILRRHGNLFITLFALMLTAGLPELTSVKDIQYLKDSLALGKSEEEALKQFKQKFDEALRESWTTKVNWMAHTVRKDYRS
T2 sequence (P27986 whole entry partner): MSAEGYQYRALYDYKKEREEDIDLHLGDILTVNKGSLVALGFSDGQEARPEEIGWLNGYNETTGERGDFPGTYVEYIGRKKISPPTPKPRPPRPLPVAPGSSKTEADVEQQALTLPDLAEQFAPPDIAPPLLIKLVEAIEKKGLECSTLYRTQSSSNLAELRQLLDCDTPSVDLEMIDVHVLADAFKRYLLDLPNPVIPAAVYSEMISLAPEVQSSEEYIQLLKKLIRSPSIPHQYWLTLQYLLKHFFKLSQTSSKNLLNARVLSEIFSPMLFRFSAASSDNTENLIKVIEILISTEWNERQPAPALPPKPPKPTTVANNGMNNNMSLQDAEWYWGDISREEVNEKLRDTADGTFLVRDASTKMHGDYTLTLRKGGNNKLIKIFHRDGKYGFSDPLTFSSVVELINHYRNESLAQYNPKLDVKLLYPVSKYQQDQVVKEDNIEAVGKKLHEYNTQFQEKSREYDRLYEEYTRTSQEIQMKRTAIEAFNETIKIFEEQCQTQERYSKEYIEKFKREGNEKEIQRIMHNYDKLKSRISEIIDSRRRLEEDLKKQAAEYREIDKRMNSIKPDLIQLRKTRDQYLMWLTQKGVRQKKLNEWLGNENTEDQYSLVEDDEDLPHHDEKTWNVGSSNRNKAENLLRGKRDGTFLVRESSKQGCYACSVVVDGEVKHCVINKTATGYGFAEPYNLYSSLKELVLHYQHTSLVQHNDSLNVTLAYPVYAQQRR
T1 sequence (O00329 whole entry): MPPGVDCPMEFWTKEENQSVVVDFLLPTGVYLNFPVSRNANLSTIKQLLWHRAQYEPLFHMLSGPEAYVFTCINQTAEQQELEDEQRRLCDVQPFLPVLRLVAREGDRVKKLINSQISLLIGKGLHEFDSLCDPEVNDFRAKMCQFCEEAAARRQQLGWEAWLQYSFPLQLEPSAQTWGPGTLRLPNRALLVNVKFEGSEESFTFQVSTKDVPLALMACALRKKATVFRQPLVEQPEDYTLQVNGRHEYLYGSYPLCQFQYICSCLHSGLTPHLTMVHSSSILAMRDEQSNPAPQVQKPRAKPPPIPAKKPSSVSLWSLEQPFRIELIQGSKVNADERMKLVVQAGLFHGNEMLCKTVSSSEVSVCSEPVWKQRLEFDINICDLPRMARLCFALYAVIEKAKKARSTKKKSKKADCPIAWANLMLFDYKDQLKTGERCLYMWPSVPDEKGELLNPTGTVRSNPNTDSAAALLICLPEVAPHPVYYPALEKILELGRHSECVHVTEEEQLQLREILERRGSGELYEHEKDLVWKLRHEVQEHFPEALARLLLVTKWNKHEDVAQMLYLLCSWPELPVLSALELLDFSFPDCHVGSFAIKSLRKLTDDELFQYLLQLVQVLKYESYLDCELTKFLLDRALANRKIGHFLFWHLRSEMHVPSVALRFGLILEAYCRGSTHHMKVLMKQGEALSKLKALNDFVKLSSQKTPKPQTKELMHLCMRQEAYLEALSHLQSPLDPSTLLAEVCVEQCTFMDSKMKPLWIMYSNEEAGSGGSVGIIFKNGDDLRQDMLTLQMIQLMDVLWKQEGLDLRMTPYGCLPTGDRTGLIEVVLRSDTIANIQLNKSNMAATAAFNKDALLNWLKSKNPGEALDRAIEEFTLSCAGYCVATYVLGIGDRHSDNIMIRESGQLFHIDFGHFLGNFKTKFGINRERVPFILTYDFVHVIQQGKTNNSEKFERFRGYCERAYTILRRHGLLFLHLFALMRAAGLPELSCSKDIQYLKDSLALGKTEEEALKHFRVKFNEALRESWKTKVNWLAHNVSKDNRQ
T1 sequence (P27986 whole entry partner): as the sequence (P27986 whole entry partner) above
T3 sequence (P48736 whole entry): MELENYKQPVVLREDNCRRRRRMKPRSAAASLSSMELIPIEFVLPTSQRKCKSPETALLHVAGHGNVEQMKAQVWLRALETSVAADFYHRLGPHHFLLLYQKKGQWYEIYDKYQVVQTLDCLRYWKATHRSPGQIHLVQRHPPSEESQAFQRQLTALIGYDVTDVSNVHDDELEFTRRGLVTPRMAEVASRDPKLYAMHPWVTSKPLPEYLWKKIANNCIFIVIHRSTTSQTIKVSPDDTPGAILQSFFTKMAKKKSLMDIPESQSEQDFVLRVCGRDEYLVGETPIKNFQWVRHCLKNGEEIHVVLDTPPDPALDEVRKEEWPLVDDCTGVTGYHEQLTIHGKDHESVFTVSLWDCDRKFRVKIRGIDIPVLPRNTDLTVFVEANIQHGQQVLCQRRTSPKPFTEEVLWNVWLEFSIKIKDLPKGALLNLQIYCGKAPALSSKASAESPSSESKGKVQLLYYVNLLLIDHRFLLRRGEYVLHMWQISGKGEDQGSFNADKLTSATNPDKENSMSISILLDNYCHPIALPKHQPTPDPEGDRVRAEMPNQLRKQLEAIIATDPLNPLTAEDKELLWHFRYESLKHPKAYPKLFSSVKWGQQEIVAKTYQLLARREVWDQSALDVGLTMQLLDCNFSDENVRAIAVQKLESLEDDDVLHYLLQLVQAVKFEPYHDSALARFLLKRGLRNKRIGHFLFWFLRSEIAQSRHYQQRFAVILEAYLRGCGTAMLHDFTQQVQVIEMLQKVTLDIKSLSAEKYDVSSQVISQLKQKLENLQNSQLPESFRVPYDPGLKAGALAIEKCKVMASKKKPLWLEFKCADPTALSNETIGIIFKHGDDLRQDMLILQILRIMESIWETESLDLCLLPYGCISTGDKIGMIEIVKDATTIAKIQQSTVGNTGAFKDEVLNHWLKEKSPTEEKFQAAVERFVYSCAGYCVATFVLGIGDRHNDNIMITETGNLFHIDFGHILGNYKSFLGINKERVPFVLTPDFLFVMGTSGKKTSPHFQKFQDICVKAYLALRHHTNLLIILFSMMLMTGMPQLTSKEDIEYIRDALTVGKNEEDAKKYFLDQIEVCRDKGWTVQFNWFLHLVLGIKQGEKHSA

With `C[C@H](Nc1ccc2c(c1)OCCn1cc(N3C(=O)O[C@H](C)[C@H]3C(F)F)nc1-2)C(N)=O` [Example 25, (S)-2-((2-((4S,5R)-4-(difluoromethyl)-5-methyl-2-oxooxazolidin-3-yl)-5,6-dihydrobenzo[f]imidazo[1,2-d][1,4]oxazepin-9-yl)amino)propionamide], the pIC50 with MKN1 (E545K) was 7.08; with HGC-27 (E542K), 7.03; in the data set with HCC1954 (H1047R), 7.10. In addition, the “Selectivity of PI3Kα vs PI3Kδ” value at PI3Kδ turned out to be 280. The “Tumor growth inhibition rate” value in the data set on HCC1954 cell amounted to 120%. Besides, at PI3Kβ, the “Selectivity of PI3Kα vs PI3Kβ” value is 1499. For the same molecule, on PI3Kγ, the “Selectivity of PI3Kα vs PI3Kγ” value turned out to be 401.

Take `C[C@H](Nc1ccc2c(c1F)OCCn1cc(N3C(=O)SC[C@H]3C(F)F)nc1-2)C(N)=O` [Example 50, (S)-2-((2-((R)-4-(difluoromethyl)-2-oxothiazolidin-3-yl)-8-fluoro-5,6-dihydrobenzo[f]imidazo[1,2-d][1,4]oxazepin-9-yl)amino)propionamide]: the pIC50 with MKN1 (E545K) is 6.93; with HGC-27 (E542K), 6.63; with HCC1954 (H1047R), 7.01. In addition, the “Selectivity of PI3Kα vs PI3Kδ” value on PI3Kδ came out at 81. Besides, the “Tumor growth inhibition rate” value with HCC1954 cell is 96%. Moreover, the “Selectivity of PI3Kα vs PI3Kβ” value on PI3Kβ turned out to be 197. Moreover, the “Selectivity of PI3Kα vs PI3Kγ” value on PI3Kγ is 103.

Consider `COC[C@H](Nc1ccc2c(c1)OCCn1cc(N3C(=O)SC[C@H]3C(F)F)nc1-2)C(N)=O` [Example 52, (S)-2-((2-((R)-4-(difluoromethyl)-2-oxothiazolidin-3-yl)-5,6-dihydrobenzo[f]imidazo[1,2-d][1,4]oxazepin-9-yl)amino)-3-methoxypropionamide], for which the figures for the negative-log IC50 (pIC50) in the data set on MKN1 (E545K), with HGC-27 (E542K) and with HCC1954 (H1047R) were 6.96, 6.86 and 7.24, respectively. Besides, the “Selectivity of PI3Kα vs PI3Kδ” value at PI3Kδ was determined as 139. Further, the “Tumor growth inhibition rate” value with HCC1954 cell worked out at 98%. The “Selectivity of PI3Kα vs PI3Kβ” value on PI3Kβ was 754. Moreover, the “Selectivity of PI3Kα vs PI3Kγ” value on PI3Kγ came out at 376.

As to `C[C@H](Nc1ccc2c(c1)OCCn1cc(N3C(=O)SC[C@H]3C(F)F)nc1-2)C(N)=O.O=S(=O)(O)O` [crystal form D of sulfate salt, (S)-2-((2-((R)-4-(difluoromethyl)-2-oxothiazolidin-3-yl)-5,6-dihydrobenzo[f]imidazo[1,2-d][1,4]oxazepin-9-yl)amino)propionamide], the “exposure in rats (in words)” value in data set [1] (30 mg/kg) is on record as “higher exposures”. Also, in [1] (setting [3]), the AUC(0-inf) is 9600 ng·h/mL, the AUC(0-t) was determined as 9420 ng·h/mL, the highest concentration (Cmax) was 1360 ng/mL and the Tmax was 1 h. Besides, in data set [1] (setting [3]), the half-life is 3.3 h. In addition, the MRT inf in [1] (rat, in vivo, po, rats, 30 mg/kg (as free compound), read-out: MRT0-∞) came to 5.77 h. For the same molecule, in data set [2], the hygroscopic weight gain came out at 1.256% and the “hygroscopicity (in words)” value is reported as “had hygroscopicity”.
